Measurements taken from patent US6723331B1, “Termite-controlling agent and a controlling method thereof” (Sumitomo Chemical Company, Limited, priority 1992, dated 2004).
Read-outs that look alike come from different tables or passages of the source.

System: Formosan subterranean termites (Coptotermes formosanus)
Experiment: whole plant or invertebrate
Details: soil, 72 h
Experimental: The emulsifiable concentrates obtained in Formulation Examples 1, 2 and 3 were each diluted with distilled water to a predetermined concentration. Five milliliters of every dilute chemicals solution was added to 100 g of sandy loam previously heat-sterilized, and the mixture was thoroughly mixed to prepare a test soil. This test soil was stored at 40° C. under a dark condition. After storage for a predetermined period of time (2 months and 3 months), about 15 g of the test soil was put in a plastic dish (diameter, 9 cm; height, 2 cm) and wetted. Twenty workers of Formosan subterranean termites (Coptotermes formosanus) were liberated in the plastic dish. After the dish was kept at room temperature for 3 days, the condition of the termites was observed.
For comparison, the same test was also carried out using each of fenvalerate and MGK 264.
The same test as in Test Example 1 was carried out using the emulsifiable concentrates obtained in Formulation Examples 6 and 7.
For comparison, the same test was also carried out using each of permethrin and MGK 264.

[1] = read-out: Mortality (%) after 3 days

CCCCC(CC)CN1C(=O)C2C3C=CC(C3)C2C1=O (centres unmarked) [MGK 264, N-(2-ethylhexyl)bicyclo[2.2.1]hept-5-en-2,3-dicarboximide]
mortality at 500 ppm [1]: 0% | mortality at 1000 ppm [1]: 0%

CC1(C)C(C=C(Cl)Cl)C1C(=O)OCc1cccc(Oc2ccccc2)c1 (centres unmarked) [Permethrin, 3-phenoxybenzyl 3-(2,2-dichlorovinyl)-2,2-dimethylcyclopropanecarboxylate]
mortality at 125 ppm (read-out: Mortality (%) after 3 days, 125 ppm, treated soil stored 2 months at 40° C., Table 2): 80% | mortality at 125 ppm (read-out: Mortality (%) after 3 days, 125 ppm, treated soil stored 3 months at 40° C., Table 2): 30%

CC(C)C(C(=O)OC(C#N)c1cccc(Oc2ccccc2)c1)c1ccc(Cl)cc1 (stereo not drawn) [Fenvalerate, α-cyano-3-phenoxy-benzyl-2-(4-chlorophenyl)-3-methylbutyrate]
mortality at 125 ppm (read-out: Mortality (%) after 3 days, 125 ppm, treated soil stored 2 months at 40° C., Table 1): 0% | mortality at 125 ppm (read-out: Mortality (%) after 3 days, 125 ppm, treated soil stored 3 months at 40° C., Table 1): 0% | mortality at 250 ppm (read-out: Mortality (%) after 3 days, 250 ppm, treated soil stored 2 months at 40° C., Table 1): 0% | mortality at 250 ppm (read-out: Mortality (%) after 3 days, 250 ppm, treated soil stored 3 months at 40° C., Table 1): 0%
